{"source": "patent US11090305B2", "about": "“Methods and compositions to reduce oxidative stress” (University of Massachusetts, priority 2009, dated 2021)", "key": {"[1]": {"test_system": "HSCs from hypercholesterolemic mice", "assay": "H2O2 in lysates from freshly harvested HSCs", "design": "species or system mouse", "conditions": "ApoE and HCD mice, in vivo treatment", "method": "HSCs were purified from bone marrow mononuclear cells by multi-parameter FACS sorting using the surface phenotype cKit^+Sca-1^+CD90.1^lowLin^−. A greater percentage of HSCs from ApoE^−/− and HCD mice stain with 2′,7′-dichlorofluorescein diacetate than WT KSL cells, indicating a higher oxidant level in cells from hypercholesterolemic mice. Two additional assays were carried out that confirmed this earlier finding: first, the level of H2O2 in HSC cell lysates, determined by spectrophotometry, was greater in ApoE^−/− and HCD mice than in WT mice (FIG. 42A)."}, "db/db MSC [2]": {"test_system": "db/db MSC", "assay": "Response of db/db MSC to adipogenic medium (Oil Red O staining)", "format": "cell-based, mouse", "method": "Adipocytes were identified by Oil Red O staining. m±sd, n=5, *p<0.05.\n(§1) Adipocytes were identified by Oil Red O staining. m±sd, n=4, *p<0.05 vs control. […] Endothelial cells were identified by CD31 staining. m±sd, n=4, *p<0.05 vs control, #p<0.05 vs 5 nM."}, "[3]": {"test_system": "bone marrow mononuclear cell population", "assay": "Lymphocyte lineage specification: pre-B and pro-T cells in bone marrow", "design": "species or system mouse", "conditions": "ApoE^−/− mice, in vivo treatment", "method": "(§2) Cells were stained with monoclonal antibodies conjugated to various fluoroprobes. These antibodies included: Notch1, cKit (2B8), Sca-1 (E13-161.7), CD4 (L3T4), CD8 (53-6.72), CD90.1, CD25, CD44, TCRβ, NK1.1, γδTCR, CD45.1, CD45.2. The lineage cocktail consisted of CD4, CD8, B220 (RA3-6B2), TER-119, Mac-1 (MI/70), and Gr-1 (RB6-8C5). All antibodies were purchased from BD Bioscience (San Diego, Calif.). FACS analysis was carried out on a FACS Diva.\nHypercholesterolemia is associated with lymphocytosis, while induction of hypercholesterolemia in monkeys affects the rate of CD11b monocyte differentiation. […] FIGS. 46A-46C show lymphocyte lineage specification is altered in hypercholesterolemic mice. (A) The percentages of pre-B cells and pro-T cells in the bone marrow mononuclear cell population were lower and higher, respectively, in ApoE^−/− than in WT mice. These changes were reversed by in vivo treatment of ApoE mice with NAC. (B) The percentages of pre-B cells and pro-T cells in the bone marrow mononuclear cell population were lower and higher, respectively, in HCD than in WT mice. (C) The percentage of mature B cells was lower and that of mature T cells higher in the peripheral blood mononuclear cell population from ApoE mice than from WT mice. The percentage of NKT cells was also less in ApoE mice."}, "db/db MSC [4]": {"test_system": "db/db MSC", "assay": "Differentiation of db/db MSC towards endothelial cells (CD31 staining)", "format": "cell-based, mouse", "conditions": "endogenic medium", "method": "Endothelial cells were identified by CD31 staining. m±sd, n=4, *P<0.05.\nas §1"}, "Notch1": {"test_system": "Notch1", "assay": "Notch1 expression in HSCs, early T progenitor cells and thymocytes (Example 6)", "format": "in vivo, mouse", "conditions": "hypercholesterolemic mice, 4 weeks", "method": "as §2\nThe Notch signaling pathways are expressed extensively in the hematopoietic system. Notch signaling dominates the regulation of proliferation, self-renewal, and lineage commitment of HSCs in the bone marrow as well as their downstream differentiation and maturation in the thymus (23-28). Moreover, Notch1 appears to participate in the differentiation of the unique T cell subsets, NKT cells and γδT cells (29-32). In this context, the mechanistic basis between HSC oxidant stress and aberrant lineage specification toward NKT and γδT cells in hypercholesterolemic mice was evaluated by determining Notch expression in HSC, bone marrow T cell progenitors, and immature thymocytes. […] Notch1 expression was evaluated in HSCs, early T progenitor cells, and thymocytes differs between ApoE^−/− and WT mice. […] Notch1 expression also was evaluated in HSCs, early T progenitor cells, and thymocytes differs between HCD and WT mice. […]"}, "db/db MSC [5]": {"test_system": "db/db MSC", "assay": "Basal protein expression in db/db MSC (western blot)", "format": "cell-based, mouse"}, "[6]": {"test_system": "p19^Arf, p21^Waf1, and p27^Kip1", "assay": "RT-PCR expression of p19^Arf, p21^Waf1, p27^Kip1 in HSCs", "format": "in vivo, mouse", "conditions": "ApoE^−/− mice, in vivo treatment", "method": "The expression of p15^Ink4b, p16^Ink4a, p18^Ink4c, p19^ARF, P21^Waf1, and p27^Kip1 was determined using RT-PCR, a more sensitive and quantitative assay, in ApoE^−/− and WT HSCs."}}}
{"molecule": "CC(=O)N[C@@H](CS)C(=O)O", "note": "[NAC, N-acetylcysteine]", "values": [{"measurement": "H2O2 in HSC lysates", "setting": "[1]", "value": "significantly decreased by in vivo NAC treatment"}, {"measurement": "differentiation towards adipocytes", "setting": "db/db MSC [2]", "value": "reduced adipogenesis"}, {"measurement": "percentages of pre-B cells and pro-T cells in bone marrow", "setting": "[3]", "value": "reversed these effects"}, {"measurement": "differentiation towards endothelial cells", "setting": "db/db MSC [4]", "value": "increased differentiation towards endothelial cells"}, {"measurement": "differences in Notch1 expression in HSCs, T progenitor cells and thymocytes", "setting": "Notch1", "value": "significantly reversed by in vivo treatment with NAC for 4 weeks"}, {"measurement": "eNOS expression", "setting": "db/db MSC [5]", "value": "no change in eNOS expression"}, {"measurement": "phospho-eNOS expression", "setting": "db/db MSC [5]", "value": "increased phospho-eNOS expression"}, {"measurement": "PPARγ expression", "setting": "db/db MSC [5]; basal", "value": "reduced basal PPARγ expression"}, {"measurement": "HSC expression of p19^Arf, p21^Waf1, and p27^Kip1", "setting": "[6]", "value": "fully reversed these increases"}]}
